Data on 53 compounds can be found in patent publication US20250214977A1, “STAT6 INHIBITORS AND USES THEREOF” (Kymera Therapeutics, Inc., priority 2024, published 2025).

As usually defined, the IC50 is the midpoint of a concentration-inhibition curve.

The structures appear in SMILES notation.

The experiment relates to Phosphorylation of STAT6 in human A549 cells. Kind of experiment: Phosphorylated STAT6 (pSTAT6) flow cytometry assay in human A549 cells. The conditions noted are these: read-out: STAT6 IL4 pSTAT6 assay in A549 cells: Average IC50. The class given is cell-based. The text has this:
Example 3. Phosphorylated STAT6 (pSTAT6) Flow Cytometry Assay in Human A549 Cells
Phosphorylation of STAT6 in human A549 cells was quantitatively measured using flow cytometry technology.
(In general: In flow cytometry, cells or beads pass a laser one at a time.)
For the compound `CCc1nc(C)ccc1-c1cc(C(=O)N2Cc3cnn(CC)c3C2)cc2cc(C3=CCCN(C(=O)CCn4ccnn4)C3)n(CC3CC3)c12` [Example I-535], the IC50 was above 100 µM. For `COc1ccccc1-c1cc(C2=CCCN(C(=O)CCn3ccnn3)C2)c(F)c2[nH]c(C(=O)N3CCN(c4ncccc4C(F)(F)F)CC3)cc12` [Example I-329], the concentration for half-maximal inhibition (IC50) was below 0.1 µM.

As for `COc1ccncc1-c1cc(C2=CCCN(C(=O)CCn3ccnn3)C2)c(F)c2[nH]c(C(=O)N3CCN(c4ccccc4OC)CC3)cc12` [Example I-565], the IC50 was below 0.1 µM. With `CCCCCCc1cc(C2=CCCN(C(=O)CCn3ccnn3)C2)c(F)c2[nH]c(C(=O)N3CCN(c4ncc(F)cc4OC)CC3)cc12` [Example I-695], the IC50 was above 100 µM. Consider `CCc1nc(C)ccc1-c1cc(C(=O)N2CCN(c3ccc(F)cc3OC)CC2)cc2cc(C3=CCCN(C(=O)CCn4ccnn4)C3)n(CC3CC3)c12` [Example I-534], for which the half-maximal inhibitory concentration (IC50) was above 100 µM. For `COc1ccccc1-c1cc(C2=CCCN(C(=O)CCn3ccnn3)C2)c(F)c2[nH]c(C(=O)N3CCc4c(cnn4C)C3)cc12` [Example I-518] the value was below 0.1 µM; for `CN(C)C(=O)c1cc2cc(C3=CCCN(C(=O)C4Cc5c(N)cccc5CN4C=O)C3)ccc2o1` (centres unmarked) [Example I-372], 0.1 to 1 µM. The result for `COc1ccccc1-c1cc(C2=CCCN(C(=O)CCn3ccnn3)C2)c(F)c2[nH]c(C(=O)N3CCN(c4ccc(C(F)(F)F)cc4F)CC3)cc12` [Example I-932] reads 0.1 to 1 µM.

In the case of `COc1cc(F)cnc1N1CCN(C(=O)c2cc3c(-c4cnccc4C(C)C)cc(C4=CCCN(C(=O)CCn5cccn5)C4)c(F)c3[nH]2)CC1` [Example I-669], the half-inhibitory concentration (IC50) is below 0.1 µM.

For `COc1ccccc1-c1cc(C2=CCCN(C(=O)CCn3ccnn3)C2)c(F)c2[nH]c(C(=O)N3CCN(c4ncc(Cl)cc4OC)CC3)cc12` [Example I-369], the IC50 was below 0.1 µM.

Turning to `COc1cc(F)ccc1-c1cc(C2=CCCN(C(=O)CCn3ccnn3)C2)c(F)c2[nH]c(C(=O)N3CCN(c4ncccc4OC4CC4)CC3)cc12` [Example I-594], the half-inhibitory concentration (IC50) is below 0.1 µM. For `COc1ccccc1-c1cc(C2=CCCN(C(=O)CCn3ccnn3)C2)c(F)c2[nH]c(C(=O)N3CCN(c4ccnnc4O)CC3)cc12` [Example I-908] the value was below 0.1 µM. The result for `COc1ccccc1-c1cc(C2=CCCN(C(=O)CCn3ccnn3)C2)c(F)c2[nH]c(C(=O)N3CCN(c4cccn(C)c4=O)CC3)cc12` [Example I-1021] reads below 0.1 µM; that for `CCc1nc(C)ncc1-c1cc(C2=CCCN(C(=O)CCn3ccnn3)C2)c(F)c2[nH]c(C(=O)N3Cc4cnn(CC)c4C3)cc12` [Example I-764], below 0.1 µM; that for `COc1c(-c2cc(C3=CCCN(C(=O)CCn4ccnn4)C3)c(F)c3[nH]c(C(=O)N4CCN(c5ncccc5OC5CC5)CC4)cc23)cnc2ccccc12` [Example I-447], below 0.1 µM. For `COc1cccc(/C=C/c2cc(C3=CCCN(C(=O)CCn4ccnn4)C3)c(F)c3[nH]c(C(=O)N4CCN(c5ncc(F)cc5OC)CC4)cc23)c1` [Example I-1129] the value was below 0.1 µM; for `COc1ccccc1-c1cc(C2=CCCN(C(=O)CCn3ccnn3)C2)c(F)c2[nH]c(C(=O)N3CCN(Cc4ccncc4)CC3)cc12` [Example I-858], below 0.1 µM; for `COc1cc(F)cnc1N1CCN(C(=O)c2cc3c(-c4ccc(C(=O)N5CCCC5)c(F)c4)cc(C4=CCCN(C(=O)CCn5ccnn5)C4)c(F)c3[nH]2)CC1` [Example I-1144], below 0.1 µM. Take `Cc1ccc(C#N)cc1-c1cc(C2=CCCN(C(=O)CCn3ccnn3)C2)cc2cc(C(=O)N(C)C)oc12` [Example I-1079]: the IC50 is below 0.1 µM. The result for `CCN1CCCCC1c1cc(C2=CCCN(C(=O)CCn3ccnn3)C2)c(F)c2[nH]c(C(=O)N3CCN(c4ncc(F)cc4OC)CC3)cc12` (centres unmarked) [Example I-784] reads below 0.1 µM; that for `COc1cc(F)cnc1N1CCN(C(=O)c2cc3c(-c4cccnc4C4CC4)cc(C4=CCCN(C(=O)CCn5ccnn5)C4)c(F)c3[nH]2)CC1` [Example I-628], below 0.1 µM.

As for `COc1cc(F)cnc1N1CCN(C(=O)c2cc3c(-c4ccc(C(F)F)cc4)cc(C4=CCCN(C(=O)CCn5ccnn5)C4)c(F)c3[nH]2)CC1` [Example I-1160], the 50% inhibitory concentration (IC50) was below 0.1 µM.

As to `COc1cccnc1C1=CCN(C(=O)c2cc3c(-c4cnc5ccccc5c4OC)cc(C4=CCCN(C(=O)CCn5ccnn5)C4)c(F)c3[nH]2)CC1` [Example I-451], the IC50 was below 0.1 µM. For `COc1cc(C#N)ccc1-c1cc(C2=CCCN(C(=O)CCn3ccnn3)C2)c(F)c2[nH]c(C(=O)N3CCN(c4ncccc4OC)CC3)cc12` [Example I-576] the value was below 0.1 µM. The result for `CC(=O)N1CCC=C(c2cc(-c3ccc4cncnc4c3)c3cc(C(=O)N(C)C)[nH]c3c2F)C1` [Example I-887] reads 0.1 to 1 µM; that for `COc1cc(F)cnc1N1CCN(C(=O)c2cc3c(-c4ccnc(OC(F)F)c4)cc(C4=CCCN(C(=O)CCn5ccnn5)C4)c(F)c3[nH]2)CC1` [Example I-653], below 0.1 µM; that for `CCc1ccc(-c2cc(C(=O)N3CCN(c4ncc(F)cc4OC)CC3)cc3cc(C4=CCCN(C(=O)C5CC5C(=O)O)C4)n(CC4CC4)c23)c(C)n1` (centres unmarked) [Example I-550], above 100 µM. In the case of `COc1cnccc1-c1cc(C2=CCCN(C(=O)CCn3ccnn3)C2)cc2[nH]c(C(=O)N(C)C)cc12` [Example I-1060], the half-maximal inhibitory concentration (IC50) is below 0.1 µM. The result for `CCc1ccccc1-c1cc(C2=CCCN(C(=O)CCn3ccnn3)C2)c(F)c2[nH]c(C(=O)N3CCN(c4ncccc4OC)CC3)cc12` [Example I-562] reads below 0.1 µM; that for `COc1ccccc1-c1cc(C2=CCCN(C(=O)CCn3ccnn3)C2)c(F)c2[nH]c(C(=O)N3Cc4ccc(C#N)cc4C3)cc12` [Example I-975], below 0.1 µM; that for `COc1ccccc1-c1cc(C2=CCCN(C(=O)CCn3ccnn3)C2)c(F)c2[nH]c(C(=O)N3CCN(c4ncc(F)cc4OC)CC3)cc12` [Example I-370], below 0.1 µM.

As for `CN(C)C(=O)c1cc2c(-c3ccccc3S(C)(=O)=O)cc(C3=CCCN(C(=O)CCn4ccnn4)C3)c(F)c2[nH]1` [Example I-1068], the IC50 was below 0.1 µM. The result for `COc1ccccc1-c1cc(C2=CCCN(C(=O)CCn3ccnn3)C2)c(F)c2[nH]c(C(=O)N3CCN(Cc4cccn(C)c4=O)CC3)cc12` [Example I-1198] reads below 0.1 µM; that for `COc1cc(F)cnc1N1CCN(C(=O)c2cc3c(-c4cncc(OC(F)F)c4)cc(C4=CCCN(C(=O)CCn5ccnn5)C4)c(F)c3[nH]2)CC1` [Example I-651], below 0.1 µM. The result for `CN(C)C(=O)c1cc2c(F)c(C3=CCCN(C(=O)[C@H]4Cc5ccccc5CN4C=O)C3)ccc2o1` (single isomer, unassigned) [Example I-376] reads above 100 µM; that for `COc1cccnc1N1CCN(C(=O)c2cc3c(-c4ccc5ccccc5c4OC)cc(C4=CCCN(C(=O)CCn5ccnn5)C4)c(F)c3[nH]2)CC1` [Example I-396], above 100 µM; that for `COc1ccccc1-c1cc(C2=CCCN(C(=O)CCn3ccnn3)C2)c(F)c2[nH]c(C(=O)N3CCN(c4nnn(C)c4C)CC3)cc12` [Example I-778], below 0.1 µM. Consider `COc1cccc(N2CCN(C(=O)c3cc4c(-c5cnccc5OC)cc(C5=CCCN(C(=O)CCn6ccnn6)C5)c(F)c4[nH]3)CC2)n1` [Example I-440], for which the concentration for half-maximal inhibition (IC50) is below 0.1 µM. The result for `CCc1ccncc1-c1cc(C2=CCCN(C(=O)CCn3ccnn3)C2)c(F)c2[nH]c(C(=O)N3CCN(c4ncc(Cl)cc4OC)CC3)cc12` [Example I-472] reads below 0.1 µM. For `CCOC(=O)C(=O)N1CCC=C(c2cc3cc(C(=O)N4Cc5cnn(CC)c5C4)cc(-c4ccc(CC)nc4C)c3n2CC2CC2)C1` [Example I-799] the value was above 100 µM; for `CCn1nccc1-c1cc(C2=CCCN(C(=O)CCn3ccnn3)C2)c(F)c2[nH]c(C(=O)N3CCN(c4ncccc4OC)CC3)cc12` [Example I-582], below 0.1 µM; for `COc1cc(N)ccc1-c1cc(C2=CCCN(C(=O)CCn3ccnn3)C2)c(F)c2[nH]c(C(=O)N3CCN(c4ncccc4OC)CC3)cc12` [Example I-571], below 0.1 µM. The result for `COc1ccccc1-c1cc(C2=CCCN(C(=O)CCn3ccnn3)C2)c(F)c2[nH]c(C(=O)N3CCNC(=O)CC3)cc12` [Example I-983] reads below 0.1 µM. `CCc1cc(C)ncc1-c1cc(C2=CCCN(C(=O)CCc3nccs3)C2)c(F)c2[nH]c(C(=O)N3Cc4cnn(CC)c4C3)cc12` [Example I-538]: the IC50 was below 0.1 µM. The result for `COc1cc(N2CCN(C(=O)c3cc4c(-c5ccccc5OC)cc(C5=CCCN(C(=O)CCn6ccnn6)C5)c(F)c4[nH]3)CC2)c2ccnn2c1` [Example I-926] reads below 0.1 µM; that for `COc1ncccc1-c1cc(C(=O)N2Cc3cnn(C)c3C2)cc2cc(C3=CCCN(C(=O)CCn4ccnn4)C3)n(CC3CC3)c12` [Example I-717], 10 to 100 µM; that for `CCc1cc(C)ncc1-c1cc(C2=CCCN(C(=O)CCn3cccn3)C2)c(F)c2[nH]c(C(=O)N3CCN(c4nc(C)c(F)cc4OC)CC3)cc12` [Example I-738], below 0.1 µM. For `COc1cccnc1N1CCN(C(=O)c2cc3ccc(C4=CCCN(C(=O)CCn5ccnn5)C4)c(F)c3[nH]2)CC1` [Example I-338] the value was below 0.1 µM; for `CCc1cc(C)ncc1-c1cc(C2=CCCN(C(=O)CCn3ccnn3)C2)c(F)c2[nH]c(C(=O)N3CCN(C4CC4)CC3)cc12` [Example I-536], below 0.1 µM; for `COc1ccccc1-c1cc(C2=CCCN(C(=O)CCn3ccnn3)C2)c(F)c2[nH]c(C(=O)N3CCN(c4ncc(C(F)(F)F)cc4OC)CC3)cc12` [Example I-941], below 0.1 µM. The result for `COc1ccccc1-c1cc(C2=CCCN(C(=O)CCn3ccnn3)C2)c(F)c2[nH]c(C(=O)N3Cc4ncn(C)c4C3)cc12` [Example I-541] reads below 0.1 µM; that for `COc1ccccc1-c1cc(C2=CCCN(C(=O)CCn3ccnn3)C2)c(F)c2[nH]c(C(=O)N3CCN(c4cc5ccccc5cc4OC)CC3)cc12` [Example I-342], below 0.1 µM; that for `COc1ccccc1-c1cc(C2=CCCN(C(=O)CCn3ccnn3)C2)c(F)c2[nH]c(C(=O)N3CCN(c4c(C)cccc4OC)CC3)cc12` [Example I-913], 0.1 to 1 µM.
